Reference: patent US8048927B2 (Besins Healthcare Luxembourg, priority 2004, dated 2011)

What was measured:
estrogen receptors = details: in vitro; cited from earlier work
rat liver = details: in vivo; cited from earlier work
[1] = pharmacokinetics of 4-hydroxy tamoxifen gel in healthy premenopausal women (Example 3); assay type: in vivo, human; details: for Plasma concentration of 4-hydroxy tamoxifen, Range: First cycle Day 1, 0 hr; for AUC0-24, Mean ± SD / Cav = AUC0-24/24, Mean ± SD / Cmax, Mean ± SD / tmax, Mean ± SD: last administration, day 25 of second cycle
Protocol: Each participant applied the gel daily for the duration of two menstrual cycles.
At the end of a menstrual cycle, each patient received a single dose, after which serial blood samples were collected at 0, 0.5, 1, 1.5, 2, 3, 4, 6, 12, 18, 24, 36, 48, and 72 hours.
On the first day of the following menstruation, treatment, which consisted of daily application of the gel over two menstrual cycles, began. Blood samples were collected 24 hours following the morning application of gel on days 7, 20 and 25 of the first and second cycles. On the last day of administration, day 25 of the second menstrual cycle, serial blood samples were collected prior to application and at 0.5, 1, 1.5, 2, 3, 4, 6, 12, 18, 24, 36, 48, and 72 hours after application of the gel.

CCC(=C(c1ccc(O)cc1)c1ccc(OCCN(C)C)cc1)c1ccccc1 [4-hydroxy tamoxifen, 1-[4-(2-N-dimethylaminoethoxy)phenyl]-1-(4-hydroxyphenyl)-2-phenylbut-1-ene]
potency versus tamoxifen, as measured by binding affinity to estrogen receptors (estrogen receptors): more potency than tamoxifen
rat liver carcinogenicity (rat liver): not
Plasma concentration of 4-hydroxy tamoxifen, Range ([1]; 0.5 mg/day, gel 20 mg/100 g): (0-17.2) pg/mL
Plasma concentration of 4-hydroxy tamoxifen, Mean ± SD ([1]; 0.5 mg/day, gel 20 mg/100 g, First cycle Day 7, 24 hr after application): 6.4 ± 5.6 pg/mL
Plasma concentration of 4-hydroxy tamoxifen, Mean ± SD ([1]; 0.5 mg/day, gel 20 mg/100 g, First cycle Day 20, 24 hr after application): 13.6 ± 7.9 pg/mL
Plasma concentration of 4-hydroxy tamoxifen, Mean ± SD ([1]; 0.5 mg/day, gel 20 mg/100 g, First cycle Day 25, 24 hr after application): 23.9 ± 23.4 pg/mL
Plasma concentration of 4-hydroxy tamoxifen, Mean ± SD ([1]; 0.5 mg/day, gel 20 mg/100 g, Second cycle Day 7, 24 hr after application): 25.2 ± 16.1 pg/mL
Plasma concentration of 4-hydroxy tamoxifen, Mean ± SD ([1]; 0.5 mg/day, gel 20 mg/100 g, Second cycle Day 20, 24 hr after application): 15.7 ± 14.0 pg/mL
Plasma concentration of 4-hydroxy tamoxifen, Mean ± SD ([1]; 0.5 mg/day, gel 20 mg/100 g, Second cycle Day 25, 0 hr (24 hours after Day 24 application, prior to final application)): 10.8 ± 9.9 pg/mL
Plasma concentration of 4-hydroxy tamoxifen, Mean ± SD ([1]; 0.5 mg/day, gel 20 mg/100 g, Second cycle Day 25, 0.5 hr after application): 10.9 ± 7.4 pg/mL
Plasma concentration of 4-hydroxy tamoxifen, Mean ± SD ([1]; 0.5 mg/day, gel 20 mg/100 g, Second cycle Day 25, 1 hr after application): 10.4 ± 7.8 pg/mL
Plasma concentration of 4-hydroxy tamoxifen, Mean ± SD ([1]; 0.5 mg/day, gel 20 mg/100 g, Second cycle Day 25, 1.5 hr after application): 9.0 ± 8.2 pg/mL
Plasma concentration of 4-hydroxy tamoxifen, Mean ± SD ([1]; 0.5 mg/day, gel 20 mg/100 g, Second cycle Day 25, 2 hr after application): 11.8 ± 9.5 pg/mL
Plasma concentration of 4-hydroxy tamoxifen, Mean ± SD ([1]; 0.5 mg/day, gel 20 mg/100 g, Second cycle Day 25, 3 hr after application): 10.0 ± 7.9 pg/mL
Plasma concentration of 4-hydroxy tamoxifen, Mean ± SD ([1]; 0.5 mg/day, gel 20 mg/100 g, Second cycle Day 25, 4 hr after application): 9.2 ± 8.3 pg/mL
Plasma concentration of 4-hydroxy tamoxifen, Mean ± SD ([1]; 0.5 mg/day, gel 20 mg/100 g, Second cycle Day 25, 6 hr after application): 11.4 ± 8.5 pg/mL
Plasma concentration of 4-hydroxy tamoxifen, Mean ± SD ([1]; 0.5 mg/day, gel 20 mg/100 g, Second cycle Day 25, 12 hr after application): 11.0 ± 9.7 pg/mL
Plasma concentration of 4-hydroxy tamoxifen, Mean ± SD ([1]; 0.5 mg/day, gel 20 mg/100 g, Second cycle Day 25, 18 hr after application): 9.7 ± 8.8 pg/mL
Plasma concentration of 4-hydroxy tamoxifen, Mean ± SD ([1]; 0.5 mg/day, gel 20 mg/100 g, Second cycle Day 26, 24 hr after last application): 12.4 ± 9.4 pg/mL
Plasma concentration of 4-hydroxy tamoxifen, Mean ± SD ([1]; 0.5 mg/day, gel 20 mg/100 g, Second cycle Day 26, 36 hr after last application): 10.9 ± 6.9 pg/mL
Plasma concentration of 4-hydroxy tamoxifen, Mean ± SD ([1]; 0.5 mg/day, gel 20 mg/100 g, Second cycle Day 27, 48 hr after last application): 12.1 ± 6.5 pg/mL
Plasma concentration of 4-hydroxy tamoxifen, Mean ± SD ([1]; 0.5 mg/day, gel 20 mg/100 g, Second cycle Day 28, 72 hr after last application): 9.9 ± 7.1 pg/mL
Plasma concentration of 4-hydroxy tamoxifen ([1]; 0.5 mg/day, gel 20 mg/100 g, after the second cycle, +8 days, LOQ <5 pg/mL): <LOQ
Plasma concentration of 4-hydroxy tamoxifen, maximum ([1]; 0.5 mg/day, gel 20 mg/100 g, after the second cycle, +12 days): (maximum 9.09) pg/mL
Plasma concentration of 4-hydroxy tamoxifen ([1]; 0.5 mg/day, gel 20 mg/100 g, after the second cycle, +20 days): 0 pg/mL
AUC0-24, Mean ± SD ([1]; 0.5 mg/day, gel 20 mg/100 g): 256.3 ± 205.3 pg·h/mL
Cav = AUC0-24/24, Mean ± SD ([1]; 0.5 mg/day, gel 20 mg/100 g): 10.7 ± 8.5 pg/mL
Cmax, Mean ± SD ([1]; 0.5 mg/day, gel 20 mg/100 g): 17.0 ± 8.5 pg/mL
tmax, Mean ± SD ([1]; 0.5 mg/day, gel 20 mg/100 g): 40 ± 81 h
Plasma concentration of 4-hydroxy tamoxifen, Range ([1]; 1 mg/day, gel 20 mg/100 g): (0-13.9) pg/mL
Plasma concentration of 4-hydroxy tamoxifen, Mean ± SD ([1]; 1 mg/day, gel 20 mg/100 g, First cycle Day 7, 24 hr after application): 15.2 ± 9.7 pg/mL
Plasma concentration of 4-hydroxy tamoxifen, Mean ± SD ([1]; 1 mg/day, gel 20 mg/100 g, First cycle Day 20, 24 hr after application): 17.3 ± 9.5 pg/mL
Plasma concentration of 4-hydroxy tamoxifen, Mean ± SD ([1]; 1 mg/day, gel 20 mg/100 g, First cycle Day 25, 24 hr after application): 15.5 ± 6.6 pg/mL
Plasma concentration of 4-hydroxy tamoxifen, Mean ± SD ([1]; 1 mg/day, gel 20 mg/100 g, Second cycle Day 7, 24 hr after application): 17.4 ± 11.2 pg/mL
Plasma concentration of 4-hydroxy tamoxifen, Mean ± SD ([1]; 1 mg/day, gel 20 mg/100 g, Second cycle Day 20, 24 hr after application): 14.8 ± 6.5 pg/mL
Plasma concentration of 4-hydroxy tamoxifen, Mean ± SD ([1]; 1 mg/day, gel 20 mg/100 g, Second cycle Day 25, 0 hr (24 hours after Day 24 application, prior to final application)): 15.7 ± 17.1 pg/mL
Plasma concentration of 4-hydroxy tamoxifen, Mean ± SD ([1]; 1 mg/day, gel 20 mg/100 g, Second cycle Day 25, 0.5 hr after application): 13.5 ± 9.1 pg/mL
Plasma concentration of 4-hydroxy tamoxifen, Mean ± SD ([1]; 1 mg/day, gel 20 mg/100 g, Second cycle Day 25, 1 hr after application): 10.8 ± 6.6 pg/mL
Plasma concentration of 4-hydroxy tamoxifen, Mean ± SD ([1]; 1 mg/day, gel 20 mg/100 g, Second cycle Day 25, 1.5 hr after application): 11.8 ± 8.0 pg/mL
Plasma concentration of 4-hydroxy tamoxifen, Mean ± SD ([1]; 1 mg/day, gel 20 mg/100 g, Second cycle Day 25, 2 hr after application): 10.7 ± 6.9 pg/mL
Plasma concentration of 4-hydroxy tamoxifen, Mean ± SD ([1]; 1 mg/day, gel 20 mg/100 g, Second cycle Day 25, 3 hr after application): 11.4 ± 7.9 pg/mL
Plasma concentration of 4-hydroxy tamoxifen, Mean ± SD ([1]; 1 mg/day, gel 20 mg/100 g, Second cycle Day 25, 4 hr after application): 11.2 ± 7.3 pg/mL
Plasma concentration of 4-hydroxy tamoxifen, Mean ± SD ([1]; 1 mg/day, gel 20 mg/100 g, Second cycle Day 25, 6 hr after application): 10.7 ± 6.4 pg/mL
Plasma concentration of 4-hydroxy tamoxifen, Mean ± SD ([1]; 1 mg/day, gel 20 mg/100 g, Second cycle Day 25, 12 hr after application): 11.8 ± 7.8 pg/mL
Plasma concentration of 4-hydroxy tamoxifen, Mean ± SD ([1]; 1 mg/day, gel 20 mg/100 g, Second cycle Day 25, 18 hr after application): 12.2 ± 8.3 pg/mL
Plasma concentration of 4-hydroxy tamoxifen, Mean ± SD ([1]; 1 mg/day, gel 20 mg/100 g, Second cycle Day 26, 24 hr after last application): 18.6 ± 14.2 pg/mL
Plasma concentration of 4-hydroxy tamoxifen, Mean ± SD ([1]; 1 mg/day, gel 20 mg/100 g, Second cycle Day 26, 36 hr after last application): 13.4 ± 7.5 pg/mL
Plasma concentration of 4-hydroxy tamoxifen, Mean ± SD ([1]; 1 mg/day, gel 20 mg/100 g, Second cycle Day 27, 48 hr after last application): 12.5 ± 6.0 pg/mL
Plasma concentration of 4-hydroxy tamoxifen, Mean ± SD ([1]; 1 mg/day, gel 20 mg/100 g, Second cycle Day 28, 72 hr after last application): 9.9 ± 5.8 pg/mL
T(1stC < LOQ), first timepoint at which the plasma concentration was below the limit of quantification, Mean ± SD ([1]; 1 mg/day, gel 20 mg/100 g, after last administration): 274 ± 141 h
Plasma concentration of 4-hydroxy tamoxifen, Mean ± SD ([1]; 1 mg/day, gel 20 mg/100 g, after the second cycle, +5 days): 5.8 ± 5.2 pg/mL
Plasma concentration of 4-hydroxy tamoxifen ([1]; 1 mg/day, gel 20 mg/100 g, after the second cycle, +20 days, LOQ <5 pg/mL): <LOQ
AUC0-24, Mean ± SD ([1]; 1 mg/day, gel 20 mg/100 g): 300.9 ± 190.8 pg·h/mL
Cav = AUC0-24/24, Mean ± SD ([1]; 1 mg/day, gel 20 mg/100 g): 12.5 ± 7.9 pg/mL
Cmax, Mean ± SD ([1]; 1 mg/day, gel 20 mg/100 g): 21.0 ± 4.0 pg/mL
tmax, Mean ± SD ([1]; 1 mg/day, gel 20 mg/100 g): 24 ± 18 h
Plasma concentration of 4-hydroxy tamoxifen, Range ([1]; 1 mg/day, gel 57 mg/100 g): (0-9.5) pg/mL
Plasma concentration of 4-hydroxy tamoxifen, Mean ± SD ([1]; 1 mg/day, gel 57 mg/100 g, First cycle Day 7, 24 hr after application): 14.4 ± 13.1 pg/mL
Plasma concentration of 4-hydroxy tamoxifen, Mean ± SD ([1]; 1 mg/day, gel 57 mg/100 g, First cycle Day 20, 24 hr after application): 18.1 ± 15.8 pg/mL
Plasma concentration of 4-hydroxy tamoxifen, Mean ± SD ([1]; 1 mg/day, gel 57 mg/100 g, First cycle Day 25, 24 hr after application): 19.8 ± 16.2 pg/mL
Plasma concentration of 4-hydroxy tamoxifen, Mean ± SD ([1]; 1 mg/day, gel 57 mg/100 g, Second cycle Day 7, 24 hr after application): 22.2 ± 16.4 pg/mL
Plasma concentration of 4-hydroxy tamoxifen, Mean ± SD ([1]; 1 mg/day, gel 57 mg/100 g, Second cycle Day 20, 24 hr after application): 24.4 ± 20.1 pg/mL
